Values after ≈ are worked out from the molar mass of the structure shown.
Tests used:
[1] = test system: Streptococcus uberis 166 L; experiment: MIC, in vitro activity vs. Streptococcus uberis 166 L; format: cell-based; design: unit not given beside the values; settings: Incubated at 37° C. overnight
Protocol: (§1) Table 2 summarizes the minimal inhibitory concentrations (MIC's) at which illustrative formula I compounds and cephalothin inhibit certain microorganisms associated with mastitis, such as Staphylococcus aureus 10092 (Newbould strain).
(§2) ^a Incubated at 37° C. overnight

[2] = test system: Staphylococcus aureus 10092 (Newbould strain); experiment: MIC, in vitro activity vs. S.aureus 10092; format: cell-based; design: unit not given beside the values; settings: Incubated at 37° C. overnight
Protocol: as §1, §2

[3] = test system: S.aureus 174 C; experiment: MIC, in vitro activity vs. S.aureus 174 C; format: cell-based, Staphylococcus aureus; design: unit not given beside the values; settings: Incubated at 37° C. overnight
Protocol: as §1, §2

[4] = test system: Strepcococcus dysgalactiae; experiment: MIC, in vitro activity vs. Streptococcus dysgalactiae; format: cell-based; design: unit not given here; settings: Incubated at 37° C. overnight
Protocol: as §1, §2

[5] = test system: Streptococcus uberis 150 L; experiment: MIC, in vitro activity vs. Streptococcus uberis 150 L; format: cell-based; design: unit not given beside the values; settings: Incubated at 37° C. overnight
Protocol: as §1, §2

[6] = test system: Streptococcus agalactiae; experiment: MIC, in vitro activity vs. Streptococcus agalactiae; format: cell-based; design: unit not given here; settings: Incubated at 37° C. overnight
Protocol: as §1, §2

[7] = test system: S.aureus ATCC 29213; experiment: MIC, in vitro activity vs. S.aureus ATCC 29213; format: cell-based, Staphylococcus aureus; design: unit not given beside the values; settings: Incubated at 37° C. overnight
Protocol: as §1, §2

[8] = test system: S.aureus F1C; experiment: MIC, in vitro activity vs. S.aureus F1C; format: cell-based, Staphylococcus aureus; design: unit not given beside the values; settings: Incubated at 37° C. overnight
Protocol: as §1, §2

[9] = test system: Staphylococcus aureus 10092 (Newbould); experiment: Efficacy in induced Staphylococcus aureus mastitis model in lactating goats; format: in vivo; settings: 8 halves per compound, 2 consecutive milkings 12 hours apart, approximately 25 mg/5 mL dose in peanut oil, from 36 hours post-challenge
Text: Sixteen lactating goats were selected based on the absence of Staphylococcus aureus in pre-challenge milk cultures. Maintenance ration was provided to the animals throughout the study. The goats were milked twice each day using a portable goat milker.
Milk samples were collected during the morning milking. One day prior to challenge, milk culture samples were collected from each half of the test animals to determine if there was a pre-existing infection. Additionally, a sample was collected from each half for Somatic Cell Count (SCC) determination. A milk culture sample and a sample for SCC were collected from each half 24 hours post-challenge and on Days +4 to +6, +8, +11, +13, and +15.
Udder scoring was performed during each milking wing table:
General health observations and body temperature were recorded once a day following milking during the challenge and treatment periods.
Milk samples were submitted for analysis for SCC using an electronic somatic cell counting system.
Milk culture samples were assayed for bacterial culture by plating 1.0 mL and 0.1 mL of the milk sample directly onto duplicate blood agar plates. Additionally, dilutions 10^-1 of the milk sample were plated. Plates were incubated overnight at 37° C.
Staphylococcus aureus 10092 (Newbould) was used as the challenge strain. The challenge culture was grown in Tryptic Soy Broth (TSB) from a lyovial stock overnight (16 hours) at 37° C. TSB (100 mL) was inoculated with 1 mL of the overnight culture and incubated at 37° C. with shaking for 4 hours. The culture was centrifuged at 9000 rpm for 10 minutes at 10° C.; supernatant was removed and the pellet was resuspended in phosphate buffered saline (PBS). Optimum O.D. reading at 650 nm was approximately 0.035. A 10-fold dilution series was prepared with saline to determine the CFU/mL, plating 10^-5, 10^-6, and 10^-7 dilutions onto duplicate blood agar plates. The 10^-7 dilution (approximately 10 CFU/mL) was used for the challenge material, yielding a challenge of 50 CFU/half with a 5-mL infusion.
Sixteen goats were used for the trial. During a one day pre-challenge period, milk samples were collected and temperatures were taken during the morning milking. Milk/udder evaluations were documented during the morning and afternoon milkings.
Staphylococcus aureus 10092 was infused into both halves in each of the goats. The goats were challenged following the morning milking and milked in the afternoon on the day of challenge. The challenge inoculum volume was 5 mL/half containing approximately 50 CFU S. aureus.
For the 24 hr post-challenge period milk samples were collected during the morning milking, and milk/udder evaluations made during the morning and afternoon milking.
Treatment was started at 36 hours post-challenge. Milk samples were collected for culture and SCC 24 hours post-challenge, prior to the morning milking, and the treatment period started following the afternoon milking.
Eight halves (4 goats) each were treated for 2 consecutive milkings 12 hours apart, following milking. Each designated compound was formulated in peanut oil with […] of compound per 5 g of formulation to give approximately 25 mg/5 mL dose.
Following treatment, the goats were milked and observed for 15 days. Milk samples were collected on Days +4 to +6, +8, +11, +13, and +15 to determine if the infection had cleared.
Establishment of mastitis was determined by bacterial culturing, severity of udder scoring, somatic cell count results, and body temperature.
On Days +2 to +6, milk samples were collected for a calorimetric assay to determine whether the antibiotic was still present in the milk.

[10] = test system: pasteurella multocida ATCC 12945; experiment: MIC against Gram-negative organisms: pasteurella multocida ATCC 12945; format: cell-based; settings: Incubated at 37° C. overnight; unit assumed
Protocol: (§3) The formula I compounds are also active against certain Gram-negative species.
as §2

[11] = test system: Pasteurella haemolytica 129R (bovine); experiment: MIC against Gram-negative organisms: Pasteurella haemolytica 129R (bovine); format: cell-based; settings: Incubated at 37° C. overnight; unit assumed
Protocol: as §3, §2

[12] = test system: pasteurella multocida 10,102 (bovine); experiment: MIC against Gram-negative organisms: pasteurella multocida 10,102 (bovine); format: cell-based; settings: Incubated at 37° C. overnight; unit assumed
Protocol: as §3, §2

[13] = test system: Pasteurella haemolytica 114F (bovine); experiment: MIC against Gram-negative organisms: Pasteurella haemolytica 114F (bovine); format: cell-based; settings: Incubated at 37° C. overnight; unit assumed
Protocol: as §3, §2

[14] = test system: pasteurella multocida 1051 (swine); experiment: MIC against Gram-negative organisms: pasteurella multocida 1051 (swine); format: cell-based; settings: Incubated at 37° C. overnight; unit assumed
Protocol: as §3, §2

[15] = test system: Pasteurella haemolytica 128K (bovine); experiment: MIC against Gram-negative organisms: Pasteurella haemolytica 128K (bovine); format: cell-based; settings: Incubated at 37° C. overnight; unit assumed
Protocol: as §3, §2

[16] = test system: Salmonella typhimurium; experiment: MIC against Gram-negative organisms: Salmonella typhimurium; format: cell-based; settings: Incubated at 37° C. overnight; unit assumed
Protocol: as §3, §2

[17] = test system: Escherichia coli; experiment: MIC against Gram-negative organisms: Escherichia coli; format: cell-based; settings: Incubated at 37° C. overnight; unit assumed
Protocol: as §3, §2

[18] = test system: pasteurella multocida 108E (bovine); experiment: MIC against Gram-negative organisms: pasteurella multocida 108E (bovine); format: cell-based; settings: Incubated at 37° C. overnight; unit assumed
Protocol: as §3, §2

[19] = test system: Mastitis in Cows; experiment: Efficacy in mastitis in lactating cows; format: in vivo; settings: three trials, 450 mmoles/quarter/dose for two doses
Protocol: Compound 1 was administered to lactating cows in three trials using methods analogous to those used in the goat model described in Example 13. A total of 43 quarters were treated with Compound 1, and 36 quarters were treated with cephapirin (Cefa-Lak). Both compounds were administered at 450 mmoles/quarter/dose for two doses. Compound 1 effectively treated 27 out of 43 quarters for an overall cure rate of 63%, whereas cephapirin effectively treated 18 out of 36 quarters for an overall cure rate of only 50%.

| SMILES | MIC vs. Streptococcus uberis 166 L [1] | MIC vs. S.aureus 10092 [2] | MIC vs. S.aureus 174 C [3] | MIC vs. Strepcococcus dysgalactiae [4] | MIC vs. Streptococcus uberis 150 L [5] | MIC vs. Streptococcus agalactiae [6] | MIC vs. S.aureus ATCC 29213 [7] | MIC vs. S.aureus F1C [8] | % Bacteriologic Cures [9] [%] | MIC, pasteurella multocida ATCC 12945 [10] [µg/mL] | MIC, Pasteurella haemolytica 129R (bovine) [11] [µg/mL] | MIC, pasteurella multocida 10,102 (bovine) [12] [µg/mL] | MIC, Pasteurella haemolytica 114F (bovine) [13] [µg/mL] | MIC, pasteurella multocida 1051 (swine) [14] [µg/mL] | MIC, Pasteurella haemolytica 128K (bovine) [15] [µg/mL] | MIC, Salmonella typhimurium [16] [µg/mL] | MIC, Escherichia coli [17] [µg/mL] | MIC, pasteurella multocida 108E (bovine) [18] [µg/mL] | overall cure rate [19] [%] | quarters effectively treated [19] |
| --- | --- | --- | --- | --- | --- | --- | --- | --- | --- | --- | --- | --- | --- | --- | --- | --- | --- | --- | --- | --- |
| Cc1nnc(SCC2=C(C(=O)O)N3C(=O)[C@@H](NC(=O)COc4ccc(OC(F)(F)F)cc4)[C@H]3SC2)s1 [Compound 7] | 0.0078 | 0.312 | 0.312 | ≤ 0.0078 | 0.0156 | 0.0312 | 0.312 | 0.0625 | 100 | – | – | – | – | – | – | – | – | – | – | – |
| Cc1nnc(SCC2=C(C(=O)O)N3C(=O)[C@@H](NC(=O)CSc4c(F)c(F)c(C(F)(F)F)c(F)c4F)[C@H]3SC2)s1 [Compound 5] | – | 0.0625 | 0.0625 | 0.0625 | 0.0156 | 0.0156 | 0.0625 | 0.125 | 33 | – | – | – | – | – | – | – | – | – | – | – |
| CC(=O)OCC1=C(C(=O)O)N2C(=O)[C@@H](NC(=O)Cc3cccs3)[C@H]2SC1 [Cephalothin, reference compound] | 0.0625 | – | 0.25 | – | 0.125 | 0.125 | 0.25 | 0.25 | – | 0.25 (≈ 0.631 µM) | 1 (≈ 2.52 µM) | 0.5 (≈ 1.26 µM) | 1 (≈ 2.52 µM) | 0.25 (≈ 0.631 µM) | 0.5 (≈ 1.26 µM) | 4 (≈ 10.1 µM) | 8 (≈ 20.2 µM) | 0.5 (≈ 1.26 µM) | – | – |
| Cc1nnc(SCC2=C(C(=O)O)N3C(=O)[C@@H](NC(=O)Cc4c(F)c(F)c(F)c(F)c4F)[C@H]3SC2)s1 [Compound 6] | 0.0156 | 0.125 | 0.125 | 0.0312 | 0.0625 | 0.0625 | 0.125 | 0.25 | 60 | – | – | – | – | – | – | – | – | – | – | – |
| CC(=O)OCC1=C(C(=O)O)N2C(=O)[C@@H](NC(=O)CSc3ccncc3)[C@H]2SC1 [cephapirin, reference compound] | – | – | – | – | – | – | – | – | – | – | – | – | – | – | – | – | – | – | 50 | 18 out of 36 |
| Cc1nnc(SCC2=C(C(=O)O)N3C(=O)[C@@H](NC(=O)COc4ccc(F)cc4)[C@H]3SC2)s1 [Compound 8] | 0.0312 | 0.0312 | 0.0312 | 0.0312 | 0.0312 | 0.0312 | 0.312 | 0.0312 | 100 | – | – | – | – | – | – | – | – | – | – | – |
| Cc1nnc(SCC2=C(C(=O)O)N3C(=O)[C@@H](NC(=O)COc4cc(F)cc(F)c4)[C@H]3SC2)s1 [Compound 10] | 0.0156 | 0.0312 | 0.0312 | 0.0312 | 0.0312 | 0.0156 | 0.0312 | 0.0312 | 33 | – | – | – | – | – | – | – | – | – | – | – |
| Cc1nnc(SCC2=C(C(=O)O)N3C(=O)[C@@H](NC(=O)COc4c(F)cc(F)cc4F)[C@H]3SC2)s1 [Compound 9] | 0.0625 | 0.125 | 0.0625 | 0.125 | 0.0625 | 0.0312 | 0.125 | 0.125 | 83 | – | – | – | – | – | – | – | – | – | – | – |
| Cc1nnc(SCC2=C(C(=O)O)N3C(=O)[C@@H](NC(=O)CSc4ccc(C(F)(F)F)cc4)[C@H]3SC2)s1 [Compound 2] | 0.125 | 0.125 | 0.125 | 0.0625 | 0.125 | 0.125 | 0.25 | 0.25 | 83 | – | – | – | – | – | – | – | – | – | – | – |
| Cc1nnc(SCC2=C(C(=O)O)N3C(=O)[C@@H](NC(=O)CSc4c(F)c(F)c(F)c(F)c4F)[C@H]3SC2)s1 [Compound 3] | 0.0156 | 0.625 | 0.0625 | 0.0156 | – | 0.0156 | 0.125 | 0.125 | 50 | – | – | – | – | – | – | – | – | – | – | – |
| Cc1nnc(SCC2=C(C(=O)O)N3C(=O)[C@@H](NC(=O)CSc4ccc(S(=O)(=O)C(F)(F)F)cc4)[C@H]3SC2)s1 [Compound 4] | – | 0.0312 | 0.0312 | – | – | 0.0156 | 0.0625 | 0.125 | 71 | – | – | – | – | – | – | – | – | – | – | – |
| Cc1nnc(SCC2=C(C(=O)O)N3C(=O)[C@@H](NC(=O)COc4c(F)c(F)c(F)c(F)c4F)[C@H]3SC2)s1 [Compound 1] | 0.25 | 0.25 | 0.25 | 0.125 | 0.25 | 0.25 | 0.25 | 0.5 | 71 | 0.25 (≈ 0.44 µM) | 4 (≈ 7.04 µM) | 0.25 (≈ 0.44 µM) | 8 (≈ 14.1 µM) | 0.25 (≈ 0.44 µM) | 4 (≈ 7.04 µM) | ≤ 128 | ≤ 128 | 0.25 (≈ 0.44 µM) | 63 | 27 out of 43 |
